Laboratory results taken from patent US9723842B2, “Isothiazolinone biocides enhanced by zinc ions” (ARCH CHEMICALS, INC., priority 2006, dated 2017).
Like-named read-outs stand apart in the source and are kept apart here.

System: Ps. aeruginosa
Test: Minimum inhibitory concentration against mono-cultures (microtitre plate, doubling dilutions)
Assay type: cell-based, Pseudomonas aeruginosa (NCIB 10421)
Settings: for MIC: Pseudomonas aeruginosa
Procedure: Pseudomonas aeruginosa (NCIB 10421) maintained on nutrient agar, were used to study the synergy between BIT and ZnCl2. Bacteria were grown to stationary phase (approximately 24 hours) in nutrient broth (approximately 10^9 organisms per ml). A 0.1% (v/v) inoculum was used to seed fresh medium and 100 μl of the inoculum was then added to each well of a microtitre plate, except for the first well which contained 200 μl. Using doubling dilutions, the concentration of the compounds under investigation were varied in each well along the ordinate axis. The presence or absence of growth was recorded by visual inspection after 24 hours incubation at 37° C. Bacteria were grown to stationary phase (approximately 24 hours) in nutrient broth (approximately 10^9 organisms per ml). A 0.1% (v/v) inoculum was used to seed fresh medium and 100 μl of the inoculum was then added to each well of a microtitre plate, except for the first well which contained 200 μl. Using doubling dilutions, the concentration of the compounds under investigation were varied in each well along the ordinate axis. The presence or absence of growth was recorded by visual inspection after 24 hours incubation at 37° C.

[1] = Comparative Example A, Table 10

SMILES	MIC (ppm) against Ps. aeruginosa [1]	MIC (ppm) against Ps. aeruginosa (Example 5, Table 8, column 1) [ppm]	MIC (ppm) against Ps. aeruginosa (Example 5, Table 8, column 2) [ppm]	MIC (ppm) against Ps. aeruginosa (Example 5, Table 8, column 3) [ppm]	MIC (ppm) against Ps. aeruginosa (Example 5, Table 8, column 4) [ppm]	MIC (ppm) against Ps. aeruginosa (Example 2, Table 2, column 1) [ppm]	MIC (ppm) against Ps. aeruginosa (Example 2, Table 2, column 2) [ppm]	MIC (ppm) against Ps. aeruginosa (Example 2, Table 2, column 3) [ppm]	MIC (ppm) against Ps. aeruginosa (Example 2, Table 2, column 4) [ppm]	other results
[Cl-].[Na+] [NaCl2, Sodium Chloride]	None detected (greater than 675) ppm	–	–	–	–	–	–	–	–	–
CCCCn1sc2ccccc2c1=O [BBIT, N-(n-butyl)-1,2-benzisothiazolin-3-one]	–	315	360	42	180	–	–	–	–	–
Cn1sccc1=O [MIT, 2-methyl-4-isothiazolin-3-one]	–	–	–	–	–	–	–	–	–	MIC (read-out: MIC (ppm) against Ps. aeruginosa, Example 4, Table 6, column 1): 9 µg/mL; MIC (read-out: MIC (ppm) against Ps. aeruginosa, Example 4, Table 6, column 2): 6 µg/mL; MIC (read-out: MIC (ppm) against Ps. aeruginosa, Example 4, Table 6, column 3): 10.5 µg/mL; MIC (read-out: MIC (ppm) against Ps. aeruginosa, Example 4, Table 6, column 4): 8 µg/mL
O=c1[nH]sc2ccccc12 [BIT, 1,2-benzisothiazolin-3-one]	30 ppm	–	–	–	–	30	42	42	30	–
[Cl-].[Cl-].[Zn+2] [ZnCl2, zinc chloride]	–	525	525	600	600	300	450	375	450	MIC (ppm) against Ps. aeruginosa (Example 3, Table 4, column 1): 294 ppm; MIC (ppm) against Ps. aeruginosa (Example 3, Table 4, column 2): 294 ppm; MIC (ppm) against Ps. aeruginosa (Example 3, Table 4, column 3): 210 ppm; MIC (ppm) against Ps. aeruginosa (Example 3, Table 4, column 4): 600 ppm; MIC (ppm) against Ps. aeruginosa (Example 4, Table 6, column 1): 210 ppm; MIC (ppm) against Ps. aeruginosa (Example 4, Table 6, column 2): 210 ppm; MIC (ppm) against Ps. aeruginosa (Example 4, Table 6, column 3): 450 ppm; MIC (ppm) against Ps. aeruginosa (Example 4, Table 6, column 4): 450 ppm
